From BigSolDB 2.1

CCO.C[C@H]1c2cccc(O)c2C(O)=C2C(=O)[C@]3(O)C(O)=C(C(N)=O)C(=O)[C@@H](N(C)C)[C@@H]3[C@@H](O)[C@@H]21.C[C@H]1c2cccc(O)c2C(O)=C2C(=O)[C@]3(O)C(O)=C(C(N)=O)C(=O)[C@@H](N(C)C)[C@@H]3[C@@H](O)[C@@H]21.Cl.Cl.O
Conditions | solubility (mole fraction)
in ethanol, 278.15 K | 0.00199
in ethanol, 283.15 K | 0.00222
in ethanol, 288.15 K | 0.00248
in ethanol, 293.15 K | 0.00278
in ethanol, 298.15 K | 0.00313
in ethanol, 302.85 K | 0.00327
in ethanol, 307.25 K | 0.00364
in ethanol, 312.95 K | 0.00409
in ethanol, 318.15 K | 0.0047
in ethanol, 323.05 K | 0.00522
in methanol, 278.15 K | 0.0138
in methanol, 283.15 K | 0.015
in methanol, 288.15 K | 0.016
in methanol, 293.15 K | 0.0174
in methanol, 298.15 K | 0.0198
in methanol, 302.85 K | 0.0251
in methanol, 307.25 K | 0.0292
in methanol, 312.95 K | 0.0332
in methanol, 318.15 K | 0.0402
in methanol, 323.05 K | 0.044
in n-propanol, 278.15 K | 0.000862
in n-propanol, 283.15 K | 0.00101
in n-propanol, 288.15 K | 0.00111
in n-propanol, 293.15 K | 0.00133
in n-propanol, 298.15 K | 0.00151
in n-propanol, 303.15 K | 0.00174
in n-propanol, 309.75 K | 0.00222
in n-propanol, 316.65 K | 0.00273
in n-propanol, 322.55 K | 0.00351
in water, 277.55 K | 0.00128
in water, 283.05 K | 0.00132
in water, 287.85 K | 0.0014
in water, 292.95 K | 0.00164
in water, 299.15 K | 0.00214
in water, 302.35 K | 0.00254
in water, 307.45 K | 0.00306
in water, 313.25 K | 0.00405
in water, 317.85 K | 0.00534
in water, 323.05 K | 0.00647
